Values after ≈ are worked out from the molar mass of the structure shown. One block for each molecule: values may come before it.
Legend:
Assay in all cases: ≥ marks a high value that may be exact or a test limit, other limits are often not marked, values filed in µg/mL are converted to µM
[1] = system: Candida albicans NCPF 1467
[2] = system: Staphylococcus aureus NCTC 10788
[3] = system: Escherichia coli NCTC 10418
[4] = system: Pseudomonas aeruginosa ATCC 27853
[5] = system: Staphylococcus aureus NCTC 12493
[6] = system: Enterococcus faecalis NCTC 12697
[7] = system: Pseudomonas aeruginosa ATCC 15692
[8] = system: Salmonella typhimurium KCTC 1926
[9] = system: Escherichia coli ATCC 25922
[10] = system: Klebsiella pneumoniae ATCC 13883
[11] = system: Pseudomonas aeruginosa PAO1
[12] = system: Staphylococcus aureus USA 300
Escherichia coli K-12 = system: Escherichia coli K-12
[13] = system: Acinetobacter baumannii ATCC 19606
[14] = system: Candida albicans ATCC 90028
[15] = system: Staphylococcus aureus ATCC 43300
[16] = system: Klebsiella pneumoniae ATCC 700603
[17] = system: Cryptococcus neoformans ATCC 208821
[18] = system: Candida albicans ATCC 14053
[19] = system: Staphylococcus aureus ATCC 29213
[20] = system: Enterococcus faecalis ATCC 29212
[21] = system: Pseudomonas syringae pv. tomato DC3000
[22] = system: Pseudomonas syringae pv. syringae DSM 10604
[23] = system: Pectobacterium carotovorum subsp. carotovorum DSM 30168
[24] = system: Pseudomonas corrugata DSM 7228
[25] = system: Xanthomonas vesicatoria DSM 50861
[26] = system: Clavibacter michiganensis subsp. michiganensis DSM 46294

Compound: CC[C@H](C)[C@H](NC(=O)[C@H](C)NC(=O)[C@H](Cc1cnc[nH]1)NC(=O)[C@@H]1CCCN1C(=O)[C@@H](NC(=O)[C@H](CC(C)C)NC(=O)[C@H](CO)NC(=O)[C@H](Cc1ccccc1)NC(=O)[C@H](CC(C)C)NC(=O)[C@@H](N)Cc1ccccc1)[C@@H](C)CC)C(=O)NCC(=O)NCC(=O)N[C@@H](CC(C)C)C(=O)N[C@H](C(=O)N[C@@H](CO)C(=O)N[C@@H](C)C(=O)N[C@@H](Cc1ccccc1)C(=O)N[C@@H](CCCCN)C(N)=O)[C@@H](C)CC [FLFSLIPHAIGGLISAFK]
MIC [1]: ≥ 64 µM
MIC [2]: 20 µM (≈ 38.6 µg/mL)
MIC [3]: ≥ 150 µM

MIC [1]: ≥ 200 µM
MIC [2]: 30 µM (≈ 39.9 µg/mL)
Compound: CC[C@H](C)[C@H](NC(=O)CNC(=O)CNC(=O)[C@H](CC(C)C)NC(=O)[C@@H](N)Cc1ccccc1)C(=O)N[C@@H](CC(C)C)C(=O)N[C@@H](CC(N)=O)C(=O)N[C@H](C(=O)N[C@H](C(=O)N[C@H](C(=O)NCC(=O)N[C@@H](CC(C)C)C(=O)N[C@@H](CC(C)C)C(N)=O)[C@@H](C)O)[C@@H](C)CC)[C@@H](C)O [FLGGILNTITGLL]

MIC [4]: 2 µM (≈ 5.52 µg/mL)
MIC [1]: 1 µM (≈ 2.76 µg/mL)
MIC [5]: 2 µM (≈ 5.52 µg/mL)
MIC [2]: 1 µM (≈ 2.76 µg/mL)
MIC [6]: 2 µM (≈ 5.52 µg/mL)
MIC [3]: 2 µM (≈ 5.52 µg/mL)
Compound: CC[C@H](C)[C@H](NC(=O)[C@@H]1CCCN1C(=O)[C@H](CC(C)C)NC(=O)[C@@H](N)Cc1ccccc1)C(=O)N[C@H](C(=O)N[C@@H](C)C(=O)N[C@@H](CCCCN)C(=O)N[C@@H](CC(C)C)C(=O)N[C@@H](CC(C)C)C(=O)N[C@@H](CO)C(=O)NCC(=O)N[C@@H](CC(C)C)C(=O)N[C@@H](CC(C)C)C(=O)NCC(=O)N[C@@H](CCCN=C(N)N)C(=O)N[C@@H](CCCCN)C(=O)N[C@@H](CCCCN)C(=O)N[C@@H](CCCN=C(N)N)C(=O)N[C@@H](CCCN=C(N)N)C(=O)N[C@@H](CCC(N)=O)C(=O)N[C@@H](CCCN=C(N)N)C(=O)N[C@@H](CCCN=C(N)N)C(=O)N[C@@H](CCCN=C(N)N)C(N)=O)C(C)C [FLPIVAKLLSGLLGRKKRRQRRR]

MIC [7]: ≥ 64 µM
MIC [8]: ≥ 64 µM
Compound: CC[C@H](C)[C@H](NC(=O)CNC(=O)[C@H](Cc1cnc[nH]1)NC(=O)[C@@H](NC(=O)[C@@H](NC(=O)[C@H](CO)NC(=O)CNC(=O)[C@@H](NC(=O)[C@H](Cc1ccccc1)NC(=O)[C@H](CCCN=C(N)N)NC(=O)[C@H](CC(C)C)NC(=O)[C@@H](N)Cc1ccccc1)[C@@H](C)CC)C(C)C)[C@@H](C)CC)C(=O)NCC(=O)N[C@@H](Cc1cnc[nH]1)C(=O)N[C@@H](CC(C)C)C(=O)N[C@H](C(=O)N[C@@H](Cc1cnc[nH]1)C(=O)N[C@@H](Cc1cnc[nH]1)C(=O)N[C@H](C(=O)NCC(=O)N[C@H](C(=O)N[C@@H](C)C(=O)N[C@@H](CC(C)C)C(N)=O)C(C)C)[C@@H](C)CC)C(C)C [FLRFIGSVIHGIGHLVHHIGVAL]

MIC [9]: 4.4 µM (≈ 9.25 µg/mL)
MIC [10]: 3.1 µM (≈ 6.51 µg/mL)
MIC [11]: 25 µM (≈ 52.5 µg/mL)
MIC [12]: 2.2 µM (≈ 4.62 µg/mL)
Compound: CC[C@H](C)[C@H](NC(=O)[C@H](CCCCN)NC(=O)[C@H](CCC(N)=O)NC(=O)[C@@H](NC(=O)[C@@H](NC(=O)[C@H](CCCN=C(N)N)NC(=O)[C@H](CCCCN)NC(=O)[C@H](Cc1ccccc1)NC(=O)CN)[C@@H](C)CC)C(C)C)C(=O)N[C@@H](CCCN=C(N)N)C(=O)N[C@@H](CC(=O)O)C(=O)N[C@@H](Cc1ccccc1)C(=O)N[C@@H](CC(C)C)C(=O)N[C@@H](CCCN=C(N)N)C(=O)N[C@@H](CC(N)=O)C(=O)N[C@@H](CC(C)C)C(=O)N[C@H](C(N)=O)C(C)C [GFKRIVQKIRDFLRNLV]

MIC (Escherichia coli K-12): ≥ 100 µM
MIC [12]: ≥ 100 µM
Compound: CC[C@H](C)[C@H](NC(=O)[C@H](C)NC(=O)[C@H](CCC(=O)O)NC(=O)[C@H](Cc1cnc[nH]1)NC(=O)[C@H](CC(C)C)NC(=O)CNC(=O)[C@H](CCC(N)=O)NC(=O)[C@H](Cc1ccccc1)NC(=O)[C@@H](NC(=O)[C@H](CCCCN)NC(=O)[C@H](CCCCN)NC(=O)[C@H](CC(C)C)NC(=O)[C@@H](NC(=O)[C@H](CC(N)=O)NC(=O)[C@H](CC(C)C)NC(=O)CN)[C@@H](C)O)C(C)C)C(=O)N[C@@H](CCCCN)C(=O)N[C@@H](CC(C)C)C(=O)N[C@H](C(=O)N[C@@H](CC(N)=O)C(=O)N[C@@H](CC(N)=O)C(=O)N[C@@H](Cc1cnc[nH]1)C(=O)N[C@H](C(=O)N[C@@H](CCC(N)=O)C(=O)O)C(C)C)[C@@H](C)CC [GLNTLKKVFQGLHEAIKLINNHVQ]

MIC [4]: > 15.2 µM
MIC [13]: > 15.2 µM
MIC [14]: 15.2 µM (≈ 32 µg/mL)
MIC [9]: > 15.2 µM
MIC [15]: > 15.2 µM
MIC [16]: > 15.2 µM
MIC [17]: 15.2 µM (≈ 32 µg/mL)
Compound: CC(C)C[C@H](NC(=O)CNC(=O)[C@H](CO)NC(=O)CNC(=O)[C@H](Cc1cnc[nH]1)NC(=O)[C@H](CCCN=C(N)N)NC(=O)CN)C(=O)NCC(=O)N[C@@H](Cc1cnc[nH]1)C(=O)N[C@@H](CO)C(=O)N[C@@H](CO)C(=O)N[C@@H](CO)C(=O)N[C@@H](Cc1cnc[nH]1)C(=O)NCC(=O)N[C@@H](CCC(N)=O)C(=O)N[C@@H](Cc1cnc[nH]1)C(=O)NCC(=O)N[C@@H](CO)C(=O)NCC(=O)N[C@@H](CO)C(=O)NCC(=O)N[C@@H](CCCN=C(N)N)C(=O)O [GRHGSGLGHSSSHGQHGSGSGR]

MIC [4]: 144 µM (≈ 353 µg/mL)
MIC [18]: ≥ 144 µM
MIC [19]: 72 µM (≈ 177 µg/mL)
MIC [9]: 25.3 µM (≈ 62.2 µg/mL)
MIC [10]: 25.3 µM (≈ 62.2 µg/mL)
MIC [20]: 72 µM (≈ 177 µg/mL)
Compound: CC[C@H](C)[C@H](NC(=O)[C@@H](NC(=O)[C@H](CC(N)=O)NC(=O)[C@H](CO)NC(=O)[C@H](CC(C)C)NC(=O)[C@@H](NC(=O)CN)C(C)C)C(C)C)C(=O)NCC(=O)N[C@@H](Cc1ccc(O)cc1)C(=O)N[C@@H](CC(C)C)C(=O)N[C@@H](CCCCN)C(=O)N[C@@H](CCCCN)C(=O)N[C@@H](CC(C)C)C(=O)NCC(=O)N[C@H](C(=O)NCC(=O)N[C@@H](C)C(=O)N[C@@H](CC(C)C)C(=O)N[C@@H](CC(N)=O)C(=O)N[C@@H](C)C(=O)N[C@H](C(=O)N[C@@H](CC(C)C)C(=O)N[C@@H](CCCCN)C(=O)N[C@@H](CCC(N)=O)C(N)=O)C(C)C)[C@@H](C)O [GVLSNVIGYLKKLGTGALNAVLKQ]

MIC [21]: 0.789 µM (≈ 0.999 µg/mL)
MIC [22]: 0.0789 µM (≈ 0.0999 µg/mL)
MIC [23]: 7.89 µM (≈ 9.99 µg/mL)
MIC [24]: 3.94 µM (≈ 5 µg/mL)
MIC [25]: 7.89 µM (≈ 9.99 µg/mL)
MIC [26]: 7.89 µM (≈ 9.99 µg/mL)
Compound: CC[C@H](C)[C@H](NC(=O)[C@H](CC(C)C)NC(=O)[C@H](CCCN=C(N)N)NC(=O)[C@H](CCCCN)NC(=O)[C@@H](NC(=O)[C@@H](NC(=O)[C@H](CCCCN)NC(=O)[C@H](CCCCN)NC(=O)[C@H](CCCCN)NC(=O)[C@@H](N)CCCCN)[C@@H](C)CC)[C@@H](C)CC)C(N)=O [KKKKIIKRLI]

MIC [21]: 0.668 µM (≈ 0.999 µg/mL)
MIC [22]: 1.67 µM (≈ 2.5 µg/mL)
MIC [23]: 6.68 µM (≈ 9.99 µg/mL)
MIC [24]: 6.68 µM (≈ 9.99 µg/mL)
MIC [25]: 6.68 µM (≈ 9.99 µg/mL)
MIC [26]: 6.68 µM (≈ 9.99 µg/mL)
Compound: CC[C@H](C)[C@H](NC(=O)[C@@H](NC(=O)[C@H](CCCCN)NC(=O)[C@H](CCCCN)NC(=O)[C@@H](NC(=O)[C@@H](NC(=O)[C@H](CCCCN)NC(=O)[C@H](CCCCN)NC(=O)[C@H](CCCCN)NC(=O)[C@H](CCCCN)NC(=O)[C@H](CCCCN)NC(=O)[C@@H](N)CCCCN)[C@@H](C)CC)[C@@H](C)CC)[C@@H](C)CC)C(N)=O [KKKKKKIIKKII]

Reference: DBAASP
